# From publication PMC12114195, “Synthesis, Experimental and Computational Evaluation of SERAAK1 as a 5-HT2A Receptor Ligand” (Molecules, 2025)
# How the values were obtained:
# CYP2D6 = CYP2D6 (Homo sapiens, UniProt P10635); assay: CYP2D6 P450 Glo luminescent assay; settings: for inhibition at 10 µM: human
# Procedure: (§1) Luminescence-based CYP3A4 P450 Glo and CYP2D6 P450 Glo kits (Promega, Madison, WI, USA) were used to assess the impact of SERAAK1 on the activity of two distinct cytochrome P450 isoforms. These assays were performed according to the protocol of the manufacturer and in alignment with the previously described methods. Each assay was performed twice in triplicate. Luminescence signals were measured using a Spark microplate reader (Tecan, Männedorf, Zürich, Switzerland).
# mice [1] = assay: Amphetamine-induced hyperactivity; assay type: in vivo
# Procedure: In this test, we measured the distance traveled by the mice during the 20 min observation period. […] Pretreatment concerns the administration of amphetamine, and treatment concerns the tested compound.
# (§2) The investigated compound (SERAAK1) in all tests was administered intraperitoneally (i.p.), spread in a drop of Tween 80, diluted by an aqueous solution of 0.5% methylcellulose (tylose) and injected 60 min before the tests in a volume of 10 mL/kg. Initial doses of the compound were selected based on available literature and our earlier studies. Control groups received tylose injections of the same volume and via the same route of administration.
# (§3) All experiments were conducted on a 6-week-old naïve male Swiss mice weighing 24–30 g in the Experimental Medicine Center, Medical University of Lublin, Poland. The animals were housed (four/five per cage) under standard laboratory conditions (room temperature of 22 ± 1 °C and a relative humidity of 50–60% during a 12/12 h light-dark cycle, lights on at 8:00). […]
# (§4) The automatic device—actimeter Opto-Varimex-4 Auto-Track (Columbus Instruments, Columbus, OH, USA)—was used to measure the locomotor activity of experimental animals. The mice were individually placed in cages for 25 min: the first 5 min for acclimatization and then the next 20 min for observation while the distance (in centimeters) traveled during this time was measured. […]
# [2] = PAMPA passive permeability; assay type: in vitro ADME; settings: for Papp at 5 h, 100 μM: PBS pH 7.4, 5 h, read-out: Pe ± SD
# Procedure: The PAMPA assay was utilized to evaluate the ability of SERAAK1 to passively diffuse through a lipid-infused artificial membrane. The results, gathered in Table 3, were expressed as permeability coefficient Pe, calculated according to the formulas described elsewhere.
# The pre-coated PAMPA Plate System Gentest from Corning (Tewksbury, MA, USA) was used in experiments using the instructions of the manufacturer. SERAAK1 and reference compounds were diluted in the PBS buffer (pH 7.4) to the final concentration of 100 μM and placed on the 96-well donor microplate. The exact quantity of molecules that successfully penetrated from donor to acceptor wells through the phospholipid membrane was estimated after 5 h of incubation using UPLC-MS spectrometry (Waters ACQUITY™ TQD system with the TQ Detector, Waters, Milford, CT, USA). The final permeability coefficient (Pe, cm/s) calculation was performed using the formula provided by the vendor of the PAMPA Plate System.
# mice [3] = assay: Chimney test (motor coordination); assay type: in vivo; settings: 30 mg/kg and 60 mg/kg i.p., 60 min after administration
# Procedure: (§5) This conclusion was supported by results from two widely used behavioral tests: the chimney test (Figure 10) and the rotarod test (Figure 11), conducted 60 min after the substance administration. In the chimney test, we measured the time it took the mice to exit the chimney, and in the second test, the time the animals stayed on the rod rotating at a constant speed of 18 rpm.
# as §2, §3
# (§6) The effects of SERAAK1 were also measured in the rotarod and chimney tests. In the first test, the ability of mice to balance on a rotating rod (18 rpm, constantly) was assessed for 1 min. […]
# mice [4] = assay: Rotarod test (motor coordination); assay type: in vivo; settings: 30 mg/kg and 60 mg/kg i.p., 60 min after administration
# Procedure: as §5, §2, §3, §6
# 5-HT2A receptor [5] = target: 5-HT2A receptor; set-up: method as in PMID 38619283; settings: radioligand binding; cited from earlier work
# mice [6] = assay: Elevated plus maze test (EPM); assay type: in vivo; settings: 30 mg/kg i.p.
# Procedure: The effect of SERAAK1 on anxiety-like behavior in mice was assessed using the elevated plus maze test (EPM). In this test we measured three parameters: time spent in the open arms of the maze, the number of entries into the open arms—expressed as a percentage of the time spent/entries in both types of maze arms and the total number of entries into the open and closed arms of the maze, which is an additional measure of the animals’ locomotor activity. The anxiolytic activity of mice after SERAAK1 administration was expressed as the percentage of time spent in the open arms of the maze and the number of entries into these arms. Statistical analysis with a t-test indicated a significant influence of acute administration of SERAAK1 (30 mg/kg) on anxiety responses.
# as §2
# as §3, with “8:00). The animals had free access to laboratory food—pellet diet (LSM, Agropol Motycz, Marynin, Poland) and tap water—except for the short time when they were removed from the cages for testing.” for “8:00).”
# Anxiety behaviors were measured using the EPM test according to the Lister method. […] The time spent in the EPM open arms, the number of entries into the open arms, and the total number of entries into both types of arms were measured.
# CYP3A4 = target: T1, CYP3A4 (Homo sapiens, UniProt P08684); assay: CYP3A4 P450 Glo luminescent assay; assay type: in vitro ADME
# T1 construct: purchased Promega
# T1 sequence (P08684 whole entry): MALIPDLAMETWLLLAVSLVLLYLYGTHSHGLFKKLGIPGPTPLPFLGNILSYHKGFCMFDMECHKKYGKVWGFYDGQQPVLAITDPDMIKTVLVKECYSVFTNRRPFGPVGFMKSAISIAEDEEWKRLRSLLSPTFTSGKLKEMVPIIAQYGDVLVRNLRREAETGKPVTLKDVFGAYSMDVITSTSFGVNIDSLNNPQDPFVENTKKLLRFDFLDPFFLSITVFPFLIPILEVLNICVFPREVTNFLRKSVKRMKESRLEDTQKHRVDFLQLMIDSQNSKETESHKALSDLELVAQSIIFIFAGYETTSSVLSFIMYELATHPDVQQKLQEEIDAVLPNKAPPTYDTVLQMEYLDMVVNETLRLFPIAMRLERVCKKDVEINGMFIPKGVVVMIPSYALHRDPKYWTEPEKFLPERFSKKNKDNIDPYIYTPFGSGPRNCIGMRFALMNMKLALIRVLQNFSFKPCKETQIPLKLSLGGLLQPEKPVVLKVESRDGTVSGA
# Procedure: Briefly, the effect of SERAAK1 on CYP3A was determined using a luminescent luciferase-based assay. A 10 µM concentration of the compound was tested in two experiments, each with three replicates.
# as §1
# mice [7] = assay: Forced swim test (FST); assay type: in vivo; settings: 30 mg/kg i.p., 60 min before the test, vs control, p < 0.01
# Procedure: The forced swim test (FST) is commonly used in rodent laboratory models to assess the efficacy of a potential antidepressant drug in alleviating or preventing depressive-like states. In the FST, we estimated the immobility time of animals, illustrating it […]. In this study, a t-test was used to assess the statistically significant effect of acute administration of SERAAK1 (30 mg/kg) on mice behavior in the FST.
# as §2
# (§7) All experiments were conducted on a 6-week-old naïve male Swiss mice weighing 24–30 g in the Experimental Medicine Center, Medical University of Lublin, Poland. […]
# The study was carried out using the test proposed by R. Porsolt. […] The immobility time, considered as the state in which the mouse performs only those movements necessary to keep its head above the water, is measured between 2 and 6 min.
# SH-SY5Y cells = assay: MTS cytotoxicity assay, SH-SY5Y; assay type: cell-based, human; settings: 72 h
# Procedure: (§8) The cytotoxic properties of SERAAK1 were tested in two human cell lines, selected based on their relevance to the study objectives—the HepG2 and SH-SY5Y. Figure 7 and Figure 8 depict the results obtained in the cytotoxicity assays performed using the MTS.
# (§9) The cytotoxic effect of SERAAK1 was evaluated using the colorimetric MTS assay. The study was conducted on HepG2 and SH-SY5Y cell lines, following the same protocol. Cell lines were obtained from the American Type Culture Collection (Manassas, VA, USA) and maintained under standard conditions (5% CO2, 37 °C) in DMEM/F12 medium (#31330-038, ThermoFisher Scientific, Waltham, MA, USA), supplemented with 10% FBS (#A5256801, ThermoFisher Scientific) and Penicillin-Streptomycin (#15140-122, ThermoFisher Scientific) until used in the experiment. Cells at passage numbers between 15 and 25 were seeded in 96-well plates at the concentration of 5000 cells/well in 200 μL of medium and incubated for 24 h at 37 °C with 5% CO2. […] Subsequently, plates were incubated at 37 °C, and absorbance was measured using a Spark microplate reader after 1 h for HepG2 and 3 h for SH-SY5Y. Final cell viability was calculated relative to control wells (100% viability) and wells with 10 μM doxorubicin (0% viability). […]
# 5-HT2A receptor [8] = target: 5-HT2A receptor; set-up: method as in PMID 38619283; settings: functional studies; read-out: Kb, antagonist of the 5-HT2A receptor; cited from earlier work
# D2 receptor = target: D2 receptor; set-up: method as in PMID 38619283; settings: radioligand binding; cited from earlier work
# HepG2 cells = assay: MTS cytotoxicity assay, HepG2; assay type: cell-based, human; settings: 72 h
# Procedure: as §8, §9
# 5-HT1A receptor = target: 5-HT1A receptor; set-up: method as in PMID 38619283; settings: radioligand binding; cited from earlier work
# mice [9] = assay: Spontaneous locomotor activity; assay type: in vivo; settings: 30 and 60 mg/kg i.p., 60 min before the test, one-way ANOVA
# Procedure: Spontaneous locomotor activity is a meaningful parameter helping to understand the physical and mental status of laboratory animals, providing insights into general activity levels, arousal and potential sedative or stimulant effects of administered substances. We measured the distance traveled by the mice during the 20 min observation period.
# as §2, §7, §4
# [10] = 60 min before the test, vs control, p < 0.001
# [11] = 30 µM (highest concentration tested)
# CYP2D6, sequence (P10635 whole entry, canonical isoform): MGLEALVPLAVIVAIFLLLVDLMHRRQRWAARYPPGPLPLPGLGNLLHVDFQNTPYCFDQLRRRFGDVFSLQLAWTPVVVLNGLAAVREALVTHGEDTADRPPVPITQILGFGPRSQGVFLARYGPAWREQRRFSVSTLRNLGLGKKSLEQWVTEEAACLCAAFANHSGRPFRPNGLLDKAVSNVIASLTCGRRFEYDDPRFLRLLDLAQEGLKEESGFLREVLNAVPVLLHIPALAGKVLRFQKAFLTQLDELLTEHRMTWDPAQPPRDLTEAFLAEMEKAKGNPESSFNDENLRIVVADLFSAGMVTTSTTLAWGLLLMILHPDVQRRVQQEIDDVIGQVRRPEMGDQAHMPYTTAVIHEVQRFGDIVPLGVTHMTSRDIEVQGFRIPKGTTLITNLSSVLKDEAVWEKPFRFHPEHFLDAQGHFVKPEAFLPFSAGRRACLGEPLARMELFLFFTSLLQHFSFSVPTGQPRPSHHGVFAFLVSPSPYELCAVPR
compound,measurement,setting,value
"C=C[C@H]1C[N@@]2CC[C@H]1C[C@@H]2[C@@H](O)c1ccnc2ccc(OC)cc12 [Quinidine, reference compound]",inhibition at 10 µM,CYP2D6; CYP2D6 P450 Glo kit (Promega),100 ± 1%
"OC(COC(c1ccccc1)c1ccccc1)CN1CCN(C(c2ccccc2)c2ccccc2)CC1 (stereo not shown) [SERAAK1, 1-(benzhydryloxy)-3-(4-benzhydrylpiperazin-1-yl)propan-2-ol]",Decrease of amphetamine-induced hyperactivity (distance traveled in 20 min),"mice [1]; 30 mg/kg with amphetamine (5 mg/kg), vs amphetamine-treated group, p < 0.05",22.15%
same,Passive permeation through the lipid bilayer,[2],did not permeate passively
same,"Papp at 5 h, 100 μM",[2],< 0.01 ×10⁻⁶ cm/s
same,"Motor coordination, chimney test (time to exit the chimney)",mice [3],did not reveal any statistically significant effects
same,"Motor coordination, rotarod test (time on the rod, 18 rpm)",mice [4],did not reveal any statistically significant effects
same,Ki,5-HT2A receptor [5],826 ± 51 nM
same,"Total arm entries, overall mobility (EPM)",mice [6],did not change the overall mobility
same,Increase in percentage of open arm entries (EPM),mice [6]; [10],19.34%
same,Increase in percentage of time spent on the open arms (EPM),mice [6]; [10],12.9%
same,"CYP3A4 induction, dose-response","CYP3A4; concentrations > 100 nM, up to 10 µM",induce CYP3A4 in a dose-dependent manner
same,inhibition at 10 µM,"CYP3A4; human, CYP3A4 P450 Glo kit (Promega), 10 µM, a negative value indicates a stimulating effect, read-out: CYP3A4 Activity Inhibition, Evaluated in the Concentration of 10 µM [% of Inhibition ± SEM]",-352 ± 9%
same,Reduction in immobility time (FST),mice [7],29.2%
same,Toxic influence on SH-SY5Y cells at lower concentrations,"SH-SY5Y cells; 0.3 µM, 3 µM",no toxic influence
same,"% inhibition of cell proliferation, SH-SY5Y",SH-SY5Y cells; [11],50 ± 5%
same,Kb,5-HT2A receptor [8],462 nM
same,CYP2D6 inhibition concentration range (IC50),CYP2D6,submicromolar
same,inhibition at 10 µM,CYP2D6,95 ± 1%
same,Ki,D2 receptor,1290 ± 323 nM
same,Toxic influence on HepG2 cells at lower concentrations,"HepG2 cells; 0.3 µM, 3 µM",no toxic influence
same,"% inhibition of cell proliferation (cytotoxic effect), HepG2",HepG2 cells; [11],84 ± 3%
same,Ki,5-HT1A receptor,1420 ± 108 nM
same,Spontaneous locomotor activity (distance traveled in 20 min),mice [9],did not show any significant changes
"CCN1CCCC1CNC(=O)c1cc(S(N)(=O)=O)ccc1OC (stereo not shown) [Sulpiride, reference compound]","Papp at 5 h, 100 μM",[2],0.011 ± 0.002 ×10⁻⁶ cm/s
"CC(N)Cc1ccccc1 (stereo not shown) [amphetamine, reference compound]",Locomotor activity (distance traveled) vs saline-treated group,"mice [1]; amphetamine alone, p < 0.001",increased the locomotor activity
